Results: PubChem BioAssay (NCI)
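How tested: cells in 96-well plates exposed to compound for 48 hours at five concentrations. At the TGI there is no net growth.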

Assays:
Experiment in all cases: NCI anticancer screen, dose series, 48 h
[1] = system: 786-0 renal
[2] = system: A498 renal
[3] = system: ACHN renal
[4] = system: BT-549 breast
[5] = system: CAKI-1 renal
[6] = system: CCRF-CEM leukemia
[7] = system: COLO 205 colon
[8] = system: DU-145 prostate
[9] = system: EKVX NSCLC
[10] = system: HCC-2998 colon
[11] = system: HCT-116 colon
[12] = system: HCT-15 colon
[13] = system: HL-60(TB) leukemia
[14] = system: HOP-62 NSCLC
[15] = system: HS 578T breast
[16] = system: HT29 colon
[17] = system: IGROV1 ovarian
[18] = system: K-562 leukemia
[19] = system: KM12 colon
[20] = system: M14 melanoma
[21] = system: MALME-3M melanoma
[22] = system: MCF7 breast
[23] = system: MDA-MB-231 breast
[24] = system: MDA-N
[25] = system: MOLT-4 leukemia
[26] = system: NCI-H226 lung
[27] = system: NCI-H23 lung
[28] = system: NCI-H460 lung
[29] = system: NCI-H522 lung
[30] = system: NCI/ADR-RES ovarian
[31] = system: OVCAR-3 ovarian
[32] = system: OVCAR-4 ovarian
[33] = system: OVCAR-5 ovarian
[34] = system: OVCAR-8 ovarian
[35] = system: PC-3 prostate
[36] = system: RXF 393 renal
[37] = system: SF-268 CNS
[38] = system: SF-295 CNS
[39] = system: SF-539 CNS
[40] = system: SK-MEL-2 melanoma
[41] = system: SK-MEL-28 melanoma
[42] = system: SK-MEL-5 melanoma
[43] = system: SK-OV-3 ovarian
[44] = system: SN12C renal
[45] = system: SNB-19 CNS
[46] = system: SNB-75 CNS
[47] = system: SR leukemia
[48] = system: SW-620 colon
[49] = system: T-47D breast
[50] = system: TK-10 renal
[51] = system: UACC-257 melanoma
[52] = system: UACC-62 melanoma
[53] = system: UO-31 renal

Measured: TGI

Cc1ccc(C(=O)Nc2ccc(S(=O)(=O)O)c3cc(S(=O)(=O)O)cc(S(=O)(=O)O)c23)cc1N
> 100 µM: all assays above
